One test addresses T1, synthetic Aβ42 (Homo sapiens, UniProt P05067).
T1 construct: a fragment comprising residues 672-713 of Aβ (“Aβ42”); purchased Bachem
In words: Inhibition of in vitro aggregation of synthetic Aβ42 by small molecules (ThT fluorescence). The format is biochemical. The following applies: 1 μM compound, 25 μM Aβ42, 1 day at 30° C. On the procedure: (§1) Aβ42, Aβ40, Aβ42F20E and Aβ42E22G peptides (Bachem, Torrance, USA) were disaggregated using Hexafluoro-2-propanol (HFIP, Sigma-Aldrich) following the protocol described elsewhere (C. Goldsbury, et al., 2005, J Mol Biol 352, 282), and aliquoted into low protein binding tubes (Eppendorf).
Effect of small molecule inhibitors of Aβ42 aggregation. 2 mM Aβ42 stock solutions in DMSO) were sonicated for 5 minutes, and diluted to final 25 μM concentration in PBS (Gibco). Small molecules were added to final 1 μM concentration, the final DMSO concentration in all samples and control was kept equal. Samples were incubated for 1 day at 30° C., and tested for Aβ42 aggregation using Thioflaving T (Tht, Sigma-Aldrich) binding monitored by fluorescence (excitation 450 nm/emission 485 nm). Tht was prepared at 5 μM in 20 mM Glycine pH=8 buffer. 10 μl of sample were plated in triplicates in clear bottom non-binding black plates (Corning), and 100 μl of Tht were added. After 5 minutes of incubation at room temperatures, fluorescence was read. Data were corrected by Tht alone fluorescence, and normalized by the Tht intensity of the control solution, Aβ42+DMSO. Ratios and standard deviations were calculated as described in the Data Analysis section.

The subject of another test is sLucAβ. The experiment in a line: Effect of small molecule aggregation inhibitors on secreted reporter in inducible cell lines. In kind it is cell-based. The following applies: 1 μM compound, 24 hours. On the procedure: (§2) 293T FlipInTrex (Invitrogen) cells. 293T FlipInTrex cells were grown as described above, using Tet Approved Fetal Bovine Serum (Clontech) and supplementing the medium with Zeocin 100 μg/mL (Invitrogen) and Blasticidin 15 μg/ml (InVivoGen, San Diego, USA). Zeocin selects for the lacZeo inserted into FRT sites in the genome, and Blasticidin selects for Tet repressor expression. For the generation of isogenic stable doxycycline inducible cell lines, cells were co-transfected overnight using Lipofectamine 2000 with the pcDNA5/FRT/TO vectors containing the fusion proteins-IRES-(NLS)3EGFP cassettes, and the pOGG-Flp recombinase plasmid (Invitrogen) at a ratio pcDNA/pOGG of 1:9. On day 2, cells were replated at −25% confluency, and selection for recombined clones was started by supplementing the medium with 75 μg/ml Hygromycin (InvivoGen) and Zeocin 100 μg/mL. Medium was exchanged every 2-3 days until colonies appeared. Cells were adapted to cell culture media containing 5% Tet approved Fetal Bovine Serum (Clontech), and 5% Serum Replacement 3 (Sigma). […] Expression of the chimeric reporter proteins was induced by addition of 0.75 μg/mL Doxycycline (Sigma-Aldrich) to cell culture medium, and tested for luciferase activity and western-blot (see below).
Effect of Small Molecule Inhibitors of Aβ42 aggregation in inducible cell lines. Congo Red, Rosmarinic acid, Quercetin, scyllo-inositol, and (−)-Epigallocatechin gallate (EGCG) were purchased from Sigma-Aldrich, and dissolved in DMSO. Cells were plated in 96-well plates and allowed to attach overnight. Cell medium without antibiotics was prepared containing 2× of the final compound concentration (1 μM) and 2× of final doxycycline concentration (0.75 μgr/ml) and diluted to 1× with media in the well. Control cells were treated with medium containing the same volume of DMSO. 8 wells were treated per condition. After 24 hours, 4 wells were harvested for luciferase assays, and 4 wells were used for cell survival assays.
sLuc Metridia activity. sLuc Metridia activity was measured using the same plates and instrument described above. Metridia reagent was prepared as described in (G. A. Stepanyuk et al., 2008, Protein Expr Purif 61, 142). Coelenterazine, native (Biosynth AG, Staad, Switzerland) was brought up at 1.43 mM in Methanol acidified with 1N HCl and diluted to 7.2 μM in 20 mM Tris-HCl 0.3M NaCl pH7.5 (Sigma-Aldrich). 20 μl of cell medium were transferred to white 96-well plates, 50 μl of reagent was injected, and every well was read for 5 s followed by a 3s delay. sLuciferase activity is measured in Relative Luminiscence Units (RLU).
(§3) Cell survival was measured using Cell titer Blue kit (Promega). […] After 1 hour incubation at 37° C., fluorescence was recorded in a Spectramax M5 plate reader, using excitation at 560 nm and emission at 590 nm in Relative Fluorescence Units (RFU).
(§4) Effect of small molecule inhibitors of Aβ42 in the inducible cell lines. The ratio luciferase activity/cell survival (Rsmall molecule) was calculated as shown in eq. […] Four technical replicates were measured per molecule for each test. Standard deviation was calculated using eq. […]
(§5) Comparing the Fold inhibition ratio of a given molecule in the Aβ42 and SH3 sensors allows the identification of molecules that change the ratios by mechanisms non-specific to aggregation such as toxicity or interference with luciferase activity. […] Standard errors were calculated using Error propagation theory. […]

The test system of the next test is cLucAβ. The experiment in a line: Effect of small molecule aggregation inhibitors on cytoplasmic reporter in inducible cell lines. The format is cell-based. The following applies: 1 μM compound, 24 hours. On the procedure:
as §2
Effect of Small Molecule Inhibitors of Aβ42 aggregation in inducible cell lines. Congo Red, Rosmarinic acid, Quercetin, scyllo-inositol, and (−)-Epigallocatechin gallate (EGCG) were purchased from Sigma-Aldrich, and dissolved in DMSO. Cells were plated in 96-well plates and allowed to attach overnight. […]
cLuciferase Firefly activity. […] 20 μl of cellular lysate were transferred to white 96-well plates (Corning), 100 μl of luciferase reagent were injected, and every well was read for 5 s followed by 3 s delay to minimize cross-talk between wells using a Modulus Microplate Multimode Reader (Turner Biosystems Inc., Sunnyvale, Calif., USA). cLuciferase activity is measured in Relative Luminiscence Units (RLU).
as §3, §4, §5

Test [1] relates to cytoplasmic and secreted reporters. In words: Thapsigargin effect on activity of cytoplasmic and secreted reporters in inducible 293FlpInTrex cell lines. In kind it is cell-based. The following applies: 24 hours, different concentrations. Here is the method: FIG. 16: Changes in proteostasis pathways 96 hours postinduction (A) relative mRNA levels of cells expressing cLucAβ or sLucAβ versus cLucSH3 or sLucSH3 measured by qPCR; (B) Protein expression analysed by Western blot. (C) Activity of cytoplasmic and secreted reporters normalized by cell survival in the presence of different concentrations of Thapsigargin compared to solvent alone. Data are means±s.d. Experiments were carried out using doxycyline inducible 293FlpInTrex cell lines expressing the aggregation sensors.
293T FlipInTrex (Invitrogen) cells. 293T FlipInTrex cells were grown as described above, using Tet Approved Fetal Bovine Serum (Clontech) and supplementing the medium with Zeocin 100 μg/mL (Invitrogen) and Blasticidin 15 μg/ml (InVivoGen, San Diego, USA). Zeocin selects for the lacZeo inserted into FRT sites in the genome, and Blasticidin selects for Tet repressor expression. […]
as §3

A short description of test [2]: In vitro Aβ42 aggregation kinetics by Thioflavin T fluorescence. In kind it is physicochemical. The conditions noted are these: 25 μM in PBS, 30° C., ThT. Here is the method:
as §1
In vitro Aβ42 kinetic experiment. 25 μM Aβ42 in PBS was incubated at 30° C. Aliquots were withdrawn at different time points, and Tht binding was measured in triplicates.

T1 sequence (P05067 672-713): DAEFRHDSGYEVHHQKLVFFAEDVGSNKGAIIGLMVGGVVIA

In the case of `Nc1c(/N=N/c2ccc(-c3ccc(/N=N/c4cc(S(=O)(=O)O)c5ccccc5c4N)cc3)cc2)cc(S(=O)(=O)O)c2ccccc12` [Congo Red], at synthetic Aβ42, the “inhibition of in vitro aggregation of synthetic Aβ42 by ThT fluorescence” value was “potently inhibited”. Also, in the test on sLucAβ, the “effect on sLucAβ activity compared to solvent alone” value is “did not increase the activity”.

Take `O=c1c(O)c(-c2ccc(O)c(O)c2)oc2cc(O)cc(O)c12` [Quercetin]: in the test on cLucAβ, the “effect on cLucAβ activity compared to solvent alone” value was “no effect”. In addition, the “effect on sLucAβ activity compared to solvent alone” value with sLucAβ was “significantly increased activity”.

Turning to `O=C(/C=C/c1ccc(O)c(O)c1)O[C@H](Cc1ccc(O)c(O)c1)C(=O)O` [Rosmarinic acid], the “effect on cLucAβ activity compared to solvent alone” value in the test with cLucAβ is “no effect”. In addition, the “effect on sLucAβ activity compared to solvent alone” value in the test on sLucAβ is “significantly increased activity”.

Take `O[C@H]1[C@H](O)[C@@H](O)[C@H](O)[C@@H](O)[C@@H]1O` [Scilloinositol, scyllo-inositol]: the “effect on cLucAβ activity compared to solvent alone” value in the test on cLucAβ is “no effect”. In the test with sLucAβ, the “effect on sLucAβ activity compared to solvent alone” value is on record as “significantly increased activity”.

As for `C/C=C(/C)C(=O)O[C@H]1C(C)=C2[C@H]([C@@H]1OC(=O)CCCCCCC)[C@@](C)(OC(C)=O)C[C@H](OC(=O)CCC)[C@@]1(O)[C@H]2OC(=O)[C@@]1(C)O` [TG, Thapsigargin], in test [1], the “effect on aggregation sensor activity normalized by cell survival” value was “increase of only sAβ activity in a TG dose-dependent manner”.

With (−)-Epigallocatechin gallate [EGCG], the “effect on cLucAβ activity compared to solvent alone” value in the test on cLucAβ is “no effect”. Further, the “effect on sLucAβ activity compared to solvent alone” value in the test on sLucAβ was “significantly increased activity”.

With “synthetic Aβ peptide: synthetic Aβ42 peptide (Bachem) used for in vitro aggregation”, in test [2], the “exponential phase of in vitro aggregation” value was 6 to 24 h and the “plateau of in vitro aggregation” value lay in the range of 24 to 72 h.

(Values after US20120141983A1, “Quantitative Aggregation Sensors” (priority 2010, published 2012).)
